In data set [1] the test system is HIV-1 tat protein. Kind of data set: direct filter binding assay of tat to TAR RNA (saturation binding, Scatchard analysis). The conditions noted are these: for affinity of tat binding compared with wild type: gel retardation and filter binding assays (data not shown); for Kd: direct filter binding, HIV-1 TAR from saturation binding/Scatchard plot, mutants estimated from half-maximal binding, read-out: Kd (dissociation constant of tat binding). How it is done:
The results shown graphically in FIG. 4 are from experiments in which binding reactions (500 ul) contained 40 nMolar^32 P uniformly radiolabelled TAR RNA at a specific activity of 100,000 Ci/mole; 0.5 ug calf thymus DNA; 0.2 ug yeast TRNA; 40 units RNAsin (Promega); 50mm Tris-HCl pH 7.9 and 20 mM KCl. Reaction mixtures were set up on ice and increasing amounts of HIV-1 tat protein were added and the reaction mixtures were filtered through prewashed nitrocellulose filters (Millipore 0.45 uM pore size). The filters were dried and counted by liquid scintillation counting. The fraction of radiolabeled RNA bound was plotted against HIV-1 tat concentration.
Binding was measured by a filter-binding assay as described below under "Method", using monomeric tat protein prepared by CNBr cleavage of a human growth hormone-tat fusion protein expressed in E. coli. Reactions for saturation binding contained labeled TAR RNA [SEQ ID NO: 1] or antisense TAR RNA [SEQ ID NO: 6] at 10 nm and between 0 to 300 nM purified tat protein. Antisense TAR RNA was used as a control, since antisense TAR is unable to form stable complexes with tat in gel-retardation assays (Dingwall et al., 1989).
The stoichiometry of the tat/TAR interaction was determined by varying the TAR RNA concentrations over a wide range, while keeping the tat protein concentration constant near the Kd. For this Scatchard analysis, the tat protein concentration was held constant at 40 nM and the RNA concentration was varied between 7nM and 320 nM. The total amount of labeled RNA was kept constant in the binding reactions, but the specific activity of the RNA was varied. […]
Tat protein was prepared either from beta-galactosidase-tat fusion proteins (6) or from human growth-hormone-tat fusion proteins (85) using an improved method. In brief, inclusion body pellets containing the fusion protein were solubilized in 7M GdHCl, 50 mM Tris-HCl pH8.0, 2 mM EDTA, 2mM DTT and the fusion protein was purified to near homogeneity by ion-exchange chromatography on Q-Sepharose and S-Sepharose (Pharmacia) in buffers containing […], 50 mM Tris-HCl pH8.0, 2mM EDTA, 2mM DTT. The cysteine residues were protected by disulphide-exchange with 20 mM 2-hydroxyethyldisulphide (86), and the protein was cleaved by cyanogen bromide (6). The basic tat protein was then separated from the acidic human growth hormone peptides by ion-exchange chromatography on Q-Sepharose and S-Sepharose in 6M Urea. The protecting groups were then removed from the protein by addition of 10 mM DTT and the protein refolded by stepwise dialysis against 6 m Urea, 5M Urea,3M Urea, 1M Urea and 0M Urea in a buffer containing 50 mM Tris-HCl pH8.0, 100 uM DTT, 10 uM ZnCl2 Tat protein refolded in this manner elutes as a monomer from Superose 12 columns (Pharmacia) and migrates as a single band on polyacrylamide gels. Protein prepared by both methods behaved comparably in binding assays.
A wide variety of parameters affecting the binding of tat protein to TAR RNA were studied and binding conditions were optimized. Binding of tat to TAR has a distinct pH optimum at pH 8.0, but good binding is observed between pH 7.5 and pH 8.5. Tat/TAR complexes are very sensitive to ionic strength. […] Addition of Zn^+2, Cd^+2, Ca^+2, Mg,^+2, Fe^+2 or Fe^+3 ions to the reaction mixtures […]. However, the binding reaction is sensitive to EDTA at greater than 0.1 mM EDTA. Complex formation is also somewhat temperature sensitive. Optimal binding is observed at 0°C. Between 15° C. and 30° C. there is a 30% reduction in complex formation. […]

Data set [2] has as its system HIV-1 tat protein. Put plainly: competition filter binding assay, mutant TAR transcripts against labelled HIV-1 TAR RNA (FIG. 7, Table 1). The conditions noted are these: 20 nM TAR RNA, 40 nM tat protein; for IC50: read-out: D1/2 (concentration of competitor RNA that reduces binding of HIV-1 tat to HIV-1 TAR RNA to 50%).
Procedure: Binding reactions (500 ul) were set up on ice and contained 80 pM ^32 P-labeled TAR RNA (17,600 dpm, 200 uCi/n mol) and unlabeled TAR RNA to give a final concentration of 20 nM, 0.5 ug calf thymus DNA, 0.2 ug yeast tRNA, 40 units RNAsin (Promega), 50 mM Tris HCl and 20 mM KCl. After addition of competitor RNA, binding was initiated by addition of HIV-1 tat protein to a final concentration of 400 ng/ml (40 nM). The binding reaction mixtures were then filtered under reduced pressure through pre-washed nitrocellulose filters (Millipore 0.45 uM pore size) and filters were dried and counted by liquid scintillation counting.
The fraction of^32 P-labeled TAR RNA bound was plotted against the final concentration of competitor RNA. In these experiments reactions included 20 nM TAR and 40 nM tat protein and increasing amounts of unlabeled competitor RNA from 40 nm to 6 uM. […] In theory, 40 nM tat will bind 50% of the input TAR RNA (D1/2) when the total TAR RNA concentration is 56 nM.
For competition experiments, binding reactions (500 ul) were set up on ice and contained 80 pM ^32 P-labeled TAR RNA (17,600 dpm, 200 uCi/n mol) and unlabeled TAR RNA to give a final concentration of 20 nM, 0.5 ug calf thymus DNA, 0.2 ug yeast TRNA, 40 units RNAsin (Promega), 50 mM Tris-HCl pH 7.9 and 20 mM KCl. After addition of 0 to 6 uM competitor RNA, binding was initiated by addition of HIV- 1 tat protein to a final concentration of 400 ng/mi (40 nM). The binding reaction mixtures were then filtered under reduced pressure through pre-washed nitrocellulose filters (Millipore 0.45 u pore size) and filters were dried and counted by liquid scintillation counting.
KRel is the ratio of the D1/2 values for HIV-1 TAR and competitor RNA.
Data set [3] deals with transactivation by tat (CAT reporter plasmid D5-3-3). Kind of data set: transactivation in vivo, altered TAR sequences in CAT reporter plasmid D5-3-3 (Tables 2 and 3). The data set is classed as cell-based. On the procedure: The TAR sequences depicted in FIG. 3 [SEQ ID NO: 1-11] were introduced into a test plasmid, pD5-3-3, which carries a LTR and approximately 300 bases of 5' flanking sequences derived from the infectious proviral clone NL4 (29). The bacterial chloramphenicol acetyltransferase (CAT) gene and SV40 intron and terminator sequence from pSV2-CAT (30) was inserted downstream of TAR by cloning into the HindIII site at +77. Trans-activation was measured either by cotransfection of HeLa cells with the test plasmids and the tat expression plasmid pC63-4-1 (6) (panels a-d in FIG. 10), or by transfection of the test plasmids alone into HeLa/C63/tat (clone 9) cells (panels e-h).
In these experiments, cells were plated at a density of 3×10^5 in a T25 flask and transfected by the calcium phosphate method (31). […] To ensure that CAT activity was measured in the linear range of the assay (30), at less than 50% conversion of chloramphenicol in its acetylated forms, for each transfection, three different aliquots containing from 5 to 70 ul extract were assayed for CAT activity. […] Reaction products were extracted with ethylacetate, separated by thin layer chromatography on silica plates and bands were counted in scintillation fluid to calculate the chloramphenicol conversion efficiency per 10 ul of extract. […]

“And” between values parts separate entries of the source, which are not always exact repeats. Equal values may be shown once. Read-outs that look alike come from different tables or passages of the source.

In the case of “ASS: anti-sense lower stem, sense upper stem and loop sequences (GGGUUCCCUAGUUAGACCAGAUUUGAGCCUGGGAGCUCUCUGGCUAACCAGAGAGACCC; chemistry not given here)”, the “affinity of tat binding compared with wild type” value in data set [1] is recorded as “bind tat with wild-type affinities”.
Take “G28 to C28: TAR point mutation expected to disrupt the top of the TAR stem/loop structure (GGGUCUCUCUGGUUAGACCAGAUUUGACCCUGGGAGCUCUCUGGCUAACUAGGGAACCC; chemistry not given here)”: in data set [2], the “KRel (ratio of D1/2 values for HIV-1 TAR and competitor RNA)” value is recorded as 0.09; the IC50 was 680 nM. Moreover, in data set [1] (listed as SEQ ID NO: 10), the Kd is 100 nM. Moreover, in data set [1], the Kd was more than 100 nM.
Turning to “G to U (loop): TAR RNA in which residues 32-34 are changed to uridine (U) (GGGUCUCUCUGGUUAGACCAGAUUUGAGCCUUUUAGCUCUCUGGCUAACUAGGGAACCC; RNA, backbone not given here)”, in data set [2], the “KRel (ratio of D1/2 values for HIV-1 TAR and competitor RNA)” value was 0.97; the IC50 turned out to be 66 nM. Besides, the Kd in data set [1] is 25 nM.
Regarding “HIV-1 TAR (UUU): full length HIV-1 TAR RNA of 59 residues prepared by transcription, wild type, UUU bulge (GGGUCUCUCUGGUUAGACCAGAUUUGAGCCUGGGAGCUCUCUGGCUAACUAGGGAACCC; unmodified RNA) [reference compound]”, the “KRel (ratio of D1/2 values for HIV-1 TAR and competitor RNA)” value in data set [2] turned out to be 1.00. In addition, the IC50 in data set [2] turned out to be 64 nM. Also, in data set [1] (Scatchard analysis, 40 nM tat, RNA 7-320 nM), the “stoichiometry v, moles of RNA bound per mole of protein” value is reported as “approximately one”. Further, the Kd was 12 nM in data set [1] (listed as HIV-1 TAR RNA); 12 nM in data set [1] (listed as TAR RNA); 11.8 nM and 12 nM in data set [1] (listed as TAR); 12 nM in data set [1]. Besides, the “Units CAT activity/500 ng plasmid” value in data set [3] (Table 2, mutations in the U-rich bulge) was 14,400 Units CAT activity/500 ng plas; in data set [3] (Table 3, mutations in the stem surrounding the U-rich bulge) it was 5,600 Units CAT activity/500 ng plas.
For the substance “SAS: anti-sense upper stem flanked by sense lower stem and loop sequences (GGGUCUCUCUGGUUAGCCAGAGAGCCUGGGAGCUCAAAUCUGGUCUAACUAGGGAACCC; chemistry not given here)”, the “affinity of tat binding compared with wild type” value in data set [1] is given as “bind tat with significantly reduced affinities”.
On to “SSA: sense stem, antisense loop sequence (GGGUCUCUCUGGUUAGACCAGAUUUGAGCUCCCAGGCUCUCUGGCUAACUAGGGAACCC; chemistry not given here)”, for which, in data set [1], the “affinity of tat binding compared with wild type” value was “bind tat with wild-type affinities”.
“delta U (bulge): TAR RNA in which residues 23-25 are deleted (GGGUCUCUCUGGUUAGACCAGAGAGCCUGGGAGCUCUCUGGCUAACUAGGGAACCC; RNA, backbone not given here)”: in data set [2], the “KRel (ratio of D1/2 values for HIV-1 TAR and competitor RNA)” value is 0.15; the IC50 amounted to 420 nM. The IC50 in data set [2] (listed as SEQ ID NO: 8) came out at 290 nM. The Kd in data set [1] is more than 70 nM.

(Values after patent publication US5821046A, “RNA oligonucleotides that bind HIV tat protein” (RiboTargets Holdings PLC, priority 1990, dated 1998).)
